From the NIST ThermoML archive (doi:10.1016/j.fluid.2014.06.029) come the findings set out here.

Numbers after ± are expanded uncertainties.

For the data set the following is noted: Liquid, Ebulliometric method (Recirculating still).

For orientation: vapor or sublimation pressure means the equilibrium pressure above the liquid or solid. Take `CI` [iodomethane]: the “vapor or sublimation pressure” value is, setting by setting: (283.15 K) 30 ± 10 kPa; (293.15 K) 47.5 ± 10 kPa; (303.15 K) 69.9 ± 10 kPa; (313.15 K) 95 ± 10 kPa; (323.15 K) 129 ± 10 kPa.
The like results for `COC` [dimethyl ether] were, in that order, 372 ± 10 kPa, 501 ± 10 kPa, 687 ± 10 kPa, 898 ± 10 kPa and 1116.2 ± 10 kPa.
